Data reported in publication PMC4899784, “LTP-1, a novel antimitotic agent and Stat3 inhibitor, inhibits human pancreatic carcinomas in vitro and in vivo” (Scientific Reports, 2016).

How the values were obtained:
[1] = target: T1, tubulin (α/β-tubulin heterodimer) (Sus scrofa, UniProt P02550+P02554); assay: cell-free tubulin polymerization assay (absorbance at […] nm), inhibition; type: biochemical
T1 construct: gene TUBA1A; with α/β-tubulin heterodimer

[2] = target: T1, tubulin (α/β-tubulin heterodimer); assay: cell-free tubulin polymerization assay (absorbance at […] nm), enhancement; type: biochemical

T1 sequence (P02550 whole entry): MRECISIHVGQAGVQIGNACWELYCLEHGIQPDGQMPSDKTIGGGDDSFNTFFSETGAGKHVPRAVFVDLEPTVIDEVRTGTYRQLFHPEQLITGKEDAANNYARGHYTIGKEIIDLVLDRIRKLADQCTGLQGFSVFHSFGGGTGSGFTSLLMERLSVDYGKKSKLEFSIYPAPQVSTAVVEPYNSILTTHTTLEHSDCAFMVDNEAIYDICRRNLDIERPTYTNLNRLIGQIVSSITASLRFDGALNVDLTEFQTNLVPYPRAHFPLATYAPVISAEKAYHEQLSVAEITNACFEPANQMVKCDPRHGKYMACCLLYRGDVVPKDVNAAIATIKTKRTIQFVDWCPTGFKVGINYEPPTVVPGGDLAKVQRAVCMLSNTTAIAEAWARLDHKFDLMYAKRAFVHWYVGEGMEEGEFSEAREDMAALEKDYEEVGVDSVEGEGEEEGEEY
T1 sequence (P02554 whole entry): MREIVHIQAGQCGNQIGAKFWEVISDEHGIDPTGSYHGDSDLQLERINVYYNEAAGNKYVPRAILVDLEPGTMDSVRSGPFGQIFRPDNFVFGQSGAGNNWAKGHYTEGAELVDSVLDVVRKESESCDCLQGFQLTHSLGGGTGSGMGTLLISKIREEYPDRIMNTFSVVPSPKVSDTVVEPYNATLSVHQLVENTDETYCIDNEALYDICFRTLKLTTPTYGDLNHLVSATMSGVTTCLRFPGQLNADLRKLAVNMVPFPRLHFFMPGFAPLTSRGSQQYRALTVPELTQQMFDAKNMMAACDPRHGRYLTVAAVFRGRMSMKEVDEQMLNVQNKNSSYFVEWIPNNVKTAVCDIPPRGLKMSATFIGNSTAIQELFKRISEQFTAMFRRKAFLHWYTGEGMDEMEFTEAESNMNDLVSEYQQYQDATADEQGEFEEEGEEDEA

## COc1ccc(S(=O)(=O)Nc2ccccc2-c2ccc(C#N)cc2)cc1 [LTP-1]
[1]
  cell-free tubulin polymerization assay (absorbance at 340 nm), inhibition: LTP-1 acted like vincristine, to inhibit tubulin polymerization in a concentration-dependent manner

## CC(=O)O[C@H]1C(=O)[C@@]2(C)[C@H]([C@H](OC(=O)c3ccccc3)[C@]3(O)C[C@H](OC(=O)[C@H](O)[C@@H](NC(=O)c4ccccc4)c4ccccc4)C(C)=C1C3(C)C)[C@]1(OC(C)=O)CO[C@@H]1C[C@@H]2O [paclitaxel]
[2]
  cell-free tubulin polymerization assay (absorbance at 340 nm), enhancement: Paclitaxel enhanced microtubule assembly and mitotic spindle formation, whereas LTP-1 and vincristine disrupted microtubule formation (Fig. 2A)
